{
  "source": "paper doi:10.1101/2023.08.03.551817v2",
  "about": "(biorxiv, 2024)",
  "assay_in_all_cases": "two-electrode voltage clamp, Xenopus oocytes",
  "key": {"[1]": {"biological_target": "T1, GluN1/GluN2A NMDA receptor (GluN1 ligand-binding site) (Rattus norvegicus, UniProt P35439, D732L)", "T1 construct": "gene Grin1; pcDNA3.1 inserts; mRNA-injected Xenopus laevis oocytes; hetero-tetramer", "type": "cell-based"}, "[2]": {"biological_target": "T2, GluN1/GluN2A NMDA receptor (GluN1 ligand-binding site) (Rattus norvegicus, UniProt P35439)", "T2 construct": "gene Grin1; pcDNA3.1 inserts; mRNA-injected Xenopus laevis oocytes; hetero-tetramer", "type": "cell-based"}, "AKDF^19383 [3]": {"tested_on": "T3, AKDF^19383", "T3 construct": "gene TRIADDRAFT_19383; codon-optimized, modified pSP64-poly(A); Xenopus laevis oocytes; homo-tetramer", "type": "cell-based, Trichoplax adhaerens", "settings": "inhibition of constitutive current; pH 7.5; -80 mV"}, "[4]": {"biological_target": "T4, GluN1/GluN2A NMDA receptor (channel pore) (Rattus norvegicus, UniProt P35439+Q00959)", "T4 construct": "gene Grin1; pcDNA3.1 inserts; mRNA-injected Xenopus laevis oocytes; hetero-tetramer", "type": "cell-based", "settings": "glycine and glutamate present; pH 7.3; -60 mV; open-channel block kinetics"}, "AKDF^19383 [5]": {"tested_on": "T3, AKDF^19383", "type": "cell-based, Trichoplax adhaerens", "settings": "pH 7.5; -80 mV; agonist"}},
  "data": [
    {"molecule": "O=C(O)c1cc(O)c2c(Cl)cc(Cl)cc2n1", "note": "[5,7-dichlorokynurenic acid]", "values": [
      {"measurement": "IC50", "setting": "[1]", "result": "0.44 ± 0.12", "unit": "µM"},
      {"measurement": "IC50", "setting": "[2]", "result": "24.9 ± 5.2", "unit": "µM"}
    ]},
    {"molecule": "C[C@H](N)C(=O)O", "note": "[alanine]", "values": [
      {"measurement": "% inhibition at 10 mM", "setting": "AKDF^19383 [3]", "result": "~ 50%"}
    ]},
    {"molecule": "NCC(=O)O", "note": "[glycine]", "values": [
      {"measurement": "% inhibition at 10 mM", "setting": "AKDF^19383 [3]", "result": "~ 50%"}
    ]},
    {"molecule": "C[C@]12N[C@H](Cc3ccccc31)c1ccccc12", "note": "[MK-801]", "values": [
      {"measurement": "two-electrode voltage clamp, Xenopus oocytes", "setting": "[4]", "result": "very similar kinetics of inhibition of WT and mutant receptors (Fig. 3A)"}
    ]},
    {"molecule": "N[C@H](CO)C(=O)O", "note": "[D-serine]", "values": [
      {"measurement": "EC50", "setting": "AKDF^19383 [5]", "result": "490 ± 120", "unit": "µM"},
      {"measurement": "% inhibition at 10 mM", "setting": "AKDF^19383 [3]", "result": "~ 50%"}
    ]}
  ]
}
